pEC50: −log10 of the molar value. Read-outs that look alike come from different tables or passages of the source.

This assay concerns the target human α7 nAChR (Homo sapiens, UniProt P36544). Nature of the assay: Automated patch-clamp electrophysiology functional assay (Assay A). The class given is cell-based. As to conditions: IonFlux HT whole-cell population patch, HEK cell line stably expressing human RIC-3 and human α7, 40 μM acetylcholine. How it is done: The α7 nAChR positive allosteric modulator (PAM) activity of the present compounds may be tested using assays known in the art. […] The assay was performed using the IonFlux HT in a whole-cell, population patch configuration. See Golden et al. Assay Drug Dev. Technol. (2011) 9:608-619. The compounds were assessed for their ability to modulate the function of the human α7 nAChR stably expressed in a HEK cell line both in the presence, and in the absence of the natural α7 agonist acetylcholine. By performing a series of such measurements at different concentrations, the effective concentration of the α7 nAChR PAMs (EC50) was determined. See Spencer et al. Assay Drug Dev. Technol. (2012) 10:313-324.
Direct activation of α7 (agonism), and potentiation of acetylcholine-evoked α7 currents was determined as follows:
Automated Patch-Clamp Electrophysiology Functional Assay (Assay A)
Automated patch-clamp electrophysiology was performed using the IonFlux HT (Fluxion Biosciences Inc., San Francisco, Calif.) in the whole-cell, population patch configuration. Test compounds were assessed for their ability to modulate the function of the α7 nicotinic acetylcholine receptor both in the presence, and in the absence of the natural α7 agonist acetylcholine. A HEK cell line stably expressing both human RIC-3 and human α7 (PrecisION hnAChR α7/RIC-3, Eurofins Pharma, St. Charles, Mo.) was cultured in 175 cm^2 triple-layer tissue culture flasks to no more than 90% confluency in DMEM/F-12 growth media supplemented with 10% heat-inactivated fetal bovine serum, 1% non-essential amino acids, 0.625 μg/mL Puromycin, and 400 μg/mL Geneticin. Immediately prior to assay, cells were detached by first aspirating growth media, rinsing with Dulbecco's phosphate buffered saline, and then adding 10 mL of Accutase (Innovative Cell Technologies, San Diego, Calif.) to the flask and then incubating at 37° C. for 5 minutes. Detached cells were then recovered by the addition of 40 mL of CHO-serum-free media supplemented with 25 mM HEPES, and rocked gently in a 50 mL conical tube for 20 minutes prior to patch-clamp assay. […] The cell suspension was added to the cell inlet wells on an IonFlux HT population patch plate which had previously been rinsed and primed with deionized H2O. Test compounds were serially diluted in DMSO and then resuspended to the final test concentration in external recording solution, with, or without 40 μM acetylcholine added to the external recording solution; test compounds were then transferred to the lonFlux HT population patch plate. Internal recording solution (110 mM TrisPO4, 28 mM TrisBase, 0.1 mM CaCl2, 2 mM MgCl2, 11 mM EGTA, 4 mM MgATP) was added to the internal recording solution inlet wells on the IonFlux HT patch plate previously loaded with cells and test compounds, and the plate loaded into the IonFlux HT instrument. A protocol was executed on the IonFlux HT to trap the cells, break into the cells, and establish the whole-cell recording configuration; cells were voltage-clamped at a holding potential of −60 mV for the duration of the experiment, all experiments were conducted at room temperature, and the IonFlux HT injection pressure was 8 psi for solution applications. Upon establishing the whole-cell configuration, external recording solution was perfused into the recording chambers for 120 seconds and then 40 μM acetylcholine was applied for 1 second and immediately washed off with external recording solution for 60 seconds. The 40 μM acetylcholine-evoked α7 current served as the current response to which subsequent test compound effects, in the presence, or in the absence of 40 μM acetylcholine would be quantified relative to. Next, test compounds were evaluated at multiple concentrations for their ability to induce, or modulate α7 current responses; three concentrations of test compound were evaluated in ascending dose fashion per recording.

Sequence of human α7 nAChR (P36544 23-502): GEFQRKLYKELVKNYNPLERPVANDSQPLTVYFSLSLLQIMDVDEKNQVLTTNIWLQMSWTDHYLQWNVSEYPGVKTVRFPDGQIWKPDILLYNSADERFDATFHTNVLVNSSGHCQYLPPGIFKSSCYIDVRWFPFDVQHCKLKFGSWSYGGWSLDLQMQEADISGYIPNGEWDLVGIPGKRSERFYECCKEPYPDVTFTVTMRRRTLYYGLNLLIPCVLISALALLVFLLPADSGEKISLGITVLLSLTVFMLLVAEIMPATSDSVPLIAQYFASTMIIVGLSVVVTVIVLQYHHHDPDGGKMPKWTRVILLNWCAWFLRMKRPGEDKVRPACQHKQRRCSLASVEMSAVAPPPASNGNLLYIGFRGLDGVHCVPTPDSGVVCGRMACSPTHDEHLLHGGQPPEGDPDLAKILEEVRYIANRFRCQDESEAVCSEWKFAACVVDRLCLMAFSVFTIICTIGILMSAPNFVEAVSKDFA

Consider `CC1(C)[C@@H](c2ccc(S(N)(=O)=O)cn2)[C@@H]1c1nc(C2CC(F)(F)C2)no1` (racemic) [Example G5, 6-{trans-3-[3-(3,3-Difluorocyclobutyl)-1,2,4-oxadiazol-5-yl]-2,2-dimethylcyclopropyl}pyridine-3-sulfonamide], for which the pEC50 is 5.44 (read-out: α7 nAChR EC50) and 5.30 to 6.30 (read-out: α7 nAChR Potency).
Regarding `NS(=O)(=O)c1ccc([C@@H]2C[C@H]2c2nc(-c3ccccc3)no2)nc1` (racemic) [Example G6, 6-[trans-2-(3-Phenyl-1,2,4-oxadiazol-5-yl)cyclopropyl]pyridine-3-sulfonamide], the pEC50 is 5.89 (read-out: α7 nAChR EC50) and 5.30 to 6.30 (read-out: α7 nAChR Potency).
In the same order, the values of `NS(=O)(=O)c1ccc([C@@H]2C[C@H]2c2nc(C3CCCC3)no2)nc1` (racemic) [Example G7, 6-[trans-2-(3-Cyclopentyl-1,2,4-oxadiazol-5-yl)cyclopropyl]pyridine-3-sulfonamide] are 5.52 and 5.30 to 6.30.
Take `CC1(C)[C@@H](c2ccc(S(N)(=O)=O)nc2)[C@@H]1c1nnc(-c2ccc(F)cc2F)s1` (relative stereo) [Example 2, 5-{trans-3-[5-(2,4-Difluorophenyl)-1,3,4-thiadiazol-2-yl]-2,2-dimethylcyclopropyl}pyridine-2-sulfonamide]: the pEC50 reads like this: (read-out: α7 nAChR EC50) 6.32; (read-out: α7 nAChR Potency) 6.30 to 7.00.
Consider `Cc1nc(S(N)(=O)=O)ccc1[C@@H]1C[C@H]1c1nc(-c2ccccc2)no1` (relative stereo) [Example 5, 6-Methyl-5-[trans-2-(3-phenyl-1,2,4-oxadiazol-5-yl)cyclopropyl]pyridine-2-sulfonamide], for which the pEC50 is, setting by setting: (read-out: α7 nAChR EC50) 5.47; (read-out: α7 nAChR Potency) 5.30 to 6.30.
Regarding `CC1(C)[C@@H](c2ccc(S(N)(=O)=O)nc2)[C@@H]1c1noc(-c2ccccc2)n1` (relative stereo) [Example 11, 5-[trans-2,2-Dimethyl-3-(5-phenyl-1,2,4-oxadiazol-3-yl)cyclopropyl]pyridine-2-sulfonamide], the pEC50 is, setting by setting: (read-out: α7 nAChR EC50) 6.00; (read-out: α7 nAChR Potency) 5.30 to 6.30.
As to `CC1(C)[C@@H](c2ccc(S(N)(=O)=O)nc2)[C@@H]1c1cc(C2CCCC2)no1` (relative stereo) [Example 12, 5-[trans-3-(3-Cyclopentylisoxazol-5-yl)-2,2-dimethylcyclopropyl]pyridine-2-sulfonamide], the pEC50 is 5.96 (read-out: α7 nAChR EC50) and 5.30 to 6.30 (read-out: α7 nAChR Potency).
Regarding `CC1(C)[C@@H](c2ccc(S(N)(=O)=O)nc2)[C@@H]1c1nc2ccccc2o1` (relative stereo) [Example C7, 5-[trans-3-(1,3-Benzoxazol-2-yl)-2,2-dimethylcyclopropyl]pyridine-2-sulfonamide], the pEC50 (read-out: α7 nAChR EC50) is 5.80 and the pEC50 (read-out: α7 nAChR Potency) was 5.30 to 6.30.
For `CC1(C)C(c2ccc(S(N)(=O)=O)nc2)C1c1nc2ccccc2o1` (single isomer, unassigned) [Example 1, 5-[trans-3-(1,3-Benzoxazol-2-yl)-2,2-dimethylcyclopropyl]pyridine-2-sulfonamide], the pEC50 is 6.35 (read-out: α7 nAChR EC50) and 6.30 to 7.00 (read-out: α7 nAChR Potency).
Take `NS(=O)(=O)c1ccc(C2CC2c2nc(-c3ccccc3)no2)cn1` (single isomer, unassigned) [Example 4, 5-[trans-2-(3-Phenyl-1,2,4-oxadiazol-5-yl)cyclopropyl]pyridine-2-sulfonamide]: the pEC50 is 6.40 (read-out: α7 nAChR EC50) and 6.30 to 7.00 (read-out: α7 nAChR Potency).
For `CC1(C)C(c2ccc(S(N)(=O)=O)nc2)C1c1cc(-c2cccc(F)c2)on1` (single isomer, unassigned) [Example 13, 5-{trans-3-[5-(3-Fluorophenyl)isoxazol-3-yl]-2,2-dimethylcyclopropyl}pyridine-2-sulfonamide], in that order: 6.11 and 5.30 to 6.30.
As to `CC1(C)C(c2ccc(S(N)(=O)=O)nc2)C1c1cc(-c2cccc(F)c2)on1` (single isomer, unassigned) [Example C13, 5-{trans-3-[5-(3-Fluorophenyl)isoxazol-3-yl]-2,2-dimethylcyclopropyl}pyridine-2-sulfonamide], the pEC50 was 5.96 (read-out: α7 nAChR EC50) and 5.30 to 6.30 (read-out: α7 nAChR Potency).
Regarding `CC1(C)[C@@H](c2ccc(S(N)(=O)=O)nc2)[C@@H]1c1nc(-c2ccccc2)no1` [Example 3, 5-[(1S,3S)-2,2-Dimethyl-3-(3-phenyl-1,2,4-oxadiazol-5-yl)cyclopropyl]pyridine-2-sulfonamide], the pEC50 by setting is: (read-out: α7 nAChR EC50) 6.42; (read-out: α7 nAChR Potency) 6.30 to 7.00.
In the same order, the values of `CC1(C)[C@@H](c2nc(-c3ccccc3)no2)[C@@H]1c1ncc(S(N)(=O)=O)s1` [Example 6, 2-[(1S,3S)-2,2-dimethyl-3-(3-phenyl-1,2,4-oxadiazol-5-yl)cyclopropyl]-1,3-thiazole-5-sulfonamide] are 6.23 and 5.30 to 6.30.
Turning to `CC1(C)[C@H](c2ccc(S(N)(=O)=O)nc2)[C@H]1c1nc(C2CCCCC2)no1` [Example 7, 5-[(1R,3R)-3-(3-Cyclohexyl-1,2,4-oxadiazol-5-yl)-2,2-dimethylcyclopropyl]pyridine-2-sulfonamide], the pEC50 reads like this: (read-out: α7 nAChR EC50) 6.19; (read-out: α7 nAChR Potency) 5.30 to 6.30.
`CC1(C)[C@@H](c2ccc(S(N)(=O)=O)nc2)[C@@H]1c1ncc(-c2ccccc2)o1` [Example 8, 5-[(1S,3S)-2,2-Dimethyl-3-(5-phenyl-1,3-oxazol-2-yl)cyclopropyl]pyridine-2-sulfonamide]: the pEC50 was 5.82 (read-out: α7 nAChR EC50) and 5.30 to 6.30 (read-out: α7 nAChR Potency).
For the compound `CC1(C)[C@H](c2ccc(S(N)(=O)=O)nc2)[C@H]1c1ncc(C2CCCC2)s1` [Example 9, 5-[(1R,3R)-3-(5-Cyclopentyl-1,3-thiazol-2-yl)-2,2-dimethylcyclopropyl]pyridine-2-sulfonamide], the pEC50 runs as follows: (read-out: α7 nAChR EC50) 6.14; (read-out: α7 nAChR Potency) 5.30 to 6.30.
Consider `CC1(C)[C@@H](c2ccc(S(N)(=O)=O)cn2)[C@@H]1c1nc(C2CCCCC2)no1` [Example 10, 6-[(1S,3S)-3-(3-Cyclohexyl-1,2,4-oxadiazol-5-yl)-2,2-dimethylcyclopropyl]pyridine-3-sulfonamide], for which the pEC50 is 6.32 (read-out: α7 nAChR EC50) and 6.30 to 7.00 (read-out: α7 nAChR Potency).
Turning to `CC1(C)[C@H](c2ccc(S(N)(=O)=O)nc2)[C@H]1c1nc(-c2ccccc2)no1` [Example A1, 5-[(1R,3R)-2,2-Dimethyl-3-(3-phenyl-1,2,4-oxadiazol-5-yl)cyclopropyl]pyridine-2-sulfonamide], the pEC50 runs as follows: (read-out: α7 nAChR EC50) 5.82; (read-out: α7 nAChR Potency) 5.30 to 6.30.
In the case of `CC1(C)[C@H](c2ccc(S(N)(=O)=O)nc2)[C@H]1c1nc(-c2cncc(C(F)(F)F)c2)no1` [Example A2, 5-[(1R,3R)-2,2-Dimethyl-3-{3-[5-(trifluoromethyl)pyridin-3-yl]-1,2,4-oxadiazol-5-yl}cyclopropyl]pyridine-2-sulfonamide], the pEC50 is 5.85 (read-out: α7 nAChR EC50) and 5.30 to 6.30 (read-out: α7 nAChR Potency).
As to `CC1(C)[C@H](c2ccc(S(N)(=O)=O)nc2)[C@H]1c1nc(C2CCCC2)no1` [Example A3, 5-[(1R,3R)-3-(3-Cyclopentyl-1,2,4-oxadiazol-5-yl)-2,2-dimethylcyclopropyl]pyridine-2-sulfonamide], the pEC50 runs as follows: (read-out: α7 nAChR EC50) 5.54; (read-out: α7 nAChR Potency) 5.30 to 6.30.
In the case of `CC1(C)[C@H](c2ccc(S(N)(=O)=O)nc2)[C@H]1c1ncc(C2CCCC2)o1` [Example A4, 5-[(1R,3R)-3-(5-Cyclopentyl-1,3-oxazol-2-yl)-2,2-dimethylcyclopropyl]pyridine-2-sulfonamide], the pEC50 reads like this: (read-out: α7 nAChR EC50) 5.49; (read-out: α7 nAChR Potency) 5.30 to 6.30.
